Laboratory results taken from the CheMixHub drug solubility set.

Assay: xn = mol fraction of the nth substance listed, in the solute-free solvent

Cc1c(Br)c(=O)n(C2CCCC2)c2nc(Cl)ncc12 + CCOC(C)=O + CCO
solubility (g/100 g solution)
Settings | 278.15 K | 283.15 K | 288.15 K | 293.15 K | 298.15 K | 303.15 K | 308.15 K | 313.15 K | 318.15 K | 323.15 K
x2 = 0.1 | 0.181 | 0.219 | 0.26 | 0.312 | 0.368 | 0.429 | 0.506 | 0.589 | 0.684 | 0.79
x2 = 0.2 | 0.238 | 0.286 | 0.341 | 0.403 | 0.475 | 0.553 | 0.645 | 0.746 | 0.86 | 0.987
x2 = 0.3 | 0.297 | 0.353 | 0.418 | 0.491 | 0.574 | 0.668 | 0.775 | 0.892 | 1.02 | 1.17
x2 = 0.4 | 0.349 | 0.414 | 0.492 | 0.571 | 0.665 | 0.77 | 0.888 | 1.02 | 1.17 | 1.32
x2 = 0.5 | 0.396 | 0.467 | 0.548 | 0.639 | 0.742 | 0.856 | 0.984 | 1.13 | 1.28 | 1.45
x2 = 0.6 | 0.438 | 0.514 | 0.602 | 0.701 | 0.811 | 0.931 | 1.07 | 1.22 | 1.38 | 1.57
x2 = 0.7 | 0.478 | 0.56 | 0.652 | 0.756 | 0.873 | 1 | 1.15 | 1.3 | 1.48 | 1.67
x2 = 0.8 | 0.52 | 0.608 | 0.706 | 0.817 | 0.939 | 1.08 | 1.23 | 1.39 | 1.57 | 1.77
x2 = 0.9 | 0.571 | 0.665 | 0.77 | 0.888 | 1.02 | 1.16 | 1.32 | 1.5 | 1.69 | 1.9

N#CCNC(=O)c1cnccc1C(F)(F)F + CCOC(C)=O + CCO
solubility (g/100 g solution)
Settings | 283.15 K | 288.15 K | 293.15 K | 298.15 K | 303.15 K | 308.15 K | 313.15 K | 318.15 K | 323.15 K
x2 = 0.2 | 4.4 | 5.22 | 6.22 | 7.38 | 8.72 | 10.2 | 12 | 14 | 16.2
x2 = 0.4 | 5.66 | 6.57 | 7.58 | 8.78 | 10.1 | 11.6 | 13.2 | 15.2 | 17.2
x2 = 0.6 | 5.43 | 6.27 | 7.24 | 8.3 | 9.5 | 10.8 | 12.3 | 13.9 | 15.6
x2 = 0.8 | 4.38 | 5.03 | 5.77 | 6.59 | 7.53 | 8.56 | 9.69 | 10.9 | 12.3

FC(F)(F)c1cccnc1Cl + CN(C)C=O + CCCCO
solubility (g/100 g solution)
Settings | 263.15 K | 268.15 K | 273.15 K | 278.15 K | 283.15 K | 288.15 K | 293.15 K | 298.15 K | 303.15 K
x2 = 0.2885 | 31.3 | 36.7 | 42.1 | 48.9 | 55.3 | 61.7 | 68.1 | 74.6 | 81.4
x2 = 0.4479 | 37.6 | 43.2 | 48.7 | 55.3 | 61.5 | 67.7 | 73.7 | 79.9 | 85.9
x2 = 0.6438 | 43.1 | 48.9 | 54.2 | 61.1 | 67.5 | 73.7 | 79.7 | 85.6 | 90.9
x2 = 0.8281 | 50.8 | 56.5 | 61.9 | 68.2 | 74 | 79.6 | 85 | 90.4 | 95.1
